Laboratory results reported in patent US7759337B2, “Phthalazine compounds and methods of use” (Amgen Inc., priority 2005, dated 2010).

system: production of TNF by monocytes activated with bacterial lipopolysaccharide (LPS); experiment: Lipopolysaccharide-activated monocyte TNF production assay; format: cell-based; conditions: Homo sapiens; whole blood monocyte assay (LPS induced TNF release)
Experimental: Test compounds were evaluated in vitro for the ability to inhibit the production of TNF by monocytes activated with bacterial lipopolysaccharide (LPS). Fresh residual source leukocytes (a byproduct of plateletpheresis) were obtained from a local blood bank, and peripheral blood mononuclear cells (PBMCs) were isolated by density gradient centrifugation on Ficol-Paque Plus (Pharmacia). PBMCs were suspended at 2×10^6/mL in DMEM supplemented to contain 2% FCS, 10 mM, 0.3 mg/mL […], 100 U/mL penicillin G and […] streptomycin sulfate (complete media). Cells were plated into Falcon flat bottom, 96 well culture plates (200 μL/well) and cultured overnight at 37° C. and 6% CO2. Non-adherent cells were removed by washing with 200 μl/well of fresh medium.
Test compounds were dissolved in […]. Compound stock solutions were prepared to an initial concentration of […]. Stocks were diluted initially to 20-200 μM in complete media. Nine two-fold serial dilutions of each compound were then prepared in complete medium.
One hundred microliters of each test compound dilution were added to microtiter wells containing adherent monocytes and 100 μL complete medium. Monocytes were cultured with test compounds for 60 min at which time 25 μL of complete medium containing 30 ng/mL lipopolysaccharide from E. coli K532 were added to each well. Cells were cultured an additional 4 hrs. Culture supernatants were then removed and TNF presence in the supernatants was quantified using an ELISA.
Flat bottom, 96 well Corning High Binding ELISA plates were coated overnight (4° C.) with 150 μL/well of 3 μg/mL murine anti-human TNF-α MAb (R&D Systems #MAB210). Wells were then blocked for 1 h at room temperature with 200 μL/well of CaCl2-free ELISA buffer supplemented to contain 20 mg/mL BSA (standard ELISA buffer: […], 150 mM NaCl, 2 mM CaCl2, 0.15 mM thimerosal, pH 7.4). Plates were washed and replenished with 100 μL of test supernatants (diluted 1:3) or standards. Standards consisted of eleven 1.5-fold serial dilutions from a stock of I ng/mL recombinant human TNF (R&D Systems). Plates were incubated at room temperature for 1 h on orbital shaker (300 rpm), washed and replenished with 100 μL/well of 0.5 μg/mL goat anti-human TNF-α (R&D systems #AB-210-NA) biotinylated at a 4:1 ratio. Plates were incubated for 40 min, washed and replenished with 100 μL/well of alkaline phosphatase-conjugated streptavidin (Jackson ImmunoResearch #016-050-084) at 0.02 μg/mL. Plates were incubated 30 min, washed and replenished with 200 μL/well of 1 mg/mL of p-nitrophenyl phosphate. After 30 min, plates were read at 405 nm on a Vmax plate reader.
Standard curve data were fit to a second order polynomial and unknown TNF-α concentrations determined from their OD by solving this equation for concentration. TNF concentrations were then plotted vs. test compound concentration using a second order polynomial. This equation was then used to calculate the concentration of test compounds causing a 50% reduction in TNF production.

Row | SMILES | IC50 [µM]
1 | CNC(=O)c1ccc(C)c(-c2ccc3c(NC(C)C)nncc3c2)c1 [Example 10, 3-(1-(isopropylamino)phthalazin-6-yl)-N,4-dimethylbenzamide] | ≤ 5
2 | Cc1ccc(C(=O)NC2CC2)cc1-c1ccc2c(-c3ccc(C(F)(F)F)cc3C(F)(F)F)nncc2c1 [Example 11, 3-(1-(2,4-bis(trifluoromethyl)phenyl)phthalazin-6-yl)-N-cyclopropyl-4-methylbenzamide] | ≤ 5
3 | Fc1ccc(Oc2ccc3c(-c4ccccc4Cl)nncc3c2)cc1 [Example 12, 1-(2-chlorophenyl)-6-(4-fluorophenoxy)phthalazine] | ≤ 5
4 | Cc1ccc(C(=O)NC2CC2)cc1-c1ccc2c(C(C)C)nncc2c1 [Example 13, N-Cyclopropyl-3-(1-isopropylphthalazin-6-yl)-4-methylbenzamide] | ≤ 5
5 | Cc1ccc2c(NC3CC3)noc2c1-c1ccc2c(N3CCOC[C@@H]3C)nncc2c1 [Example 14, N-cyclopropyl-6-methyl-7-(1-((S)-3-methylmorpholino)phthalazin-6-yl)benzo[d]isoxazol-3-amine] | ≤ 5
6 | CNc1noc2c(-c3ccc4c(N5CCOC[C@@H]5C)nncc4c3)c(Cl)ccc12 [Example 15, 6-chloro-N-methyl-7-(1-((S)-3-methylmorpholino)phthalazin-6-yl)benzo[d]isoxazol-3-amine] | ≤ 5
7 | C[C@H]1COCCN1c1nncc2cc(-c3ccc(C(F)(F)F)c4c(NC(C)(C)C)noc34)ccc12 [Example 16, N-tert-butyl-7-(1-((S)-3-methylmorpholino)phthalazin-6-yl)-4-(trifluoromethyl)benzo[d]isoxazol-3-amine] | ≤ 5
8 | Cc1ccccc1-c1ccc2c(N3CCOCC3c3ccc(Cl)cc3)nncc2c1 (stereo not shown) [Example 17, 1-(3-(4-chlorophenyl)morpholino)-6-o-tolylphthalazine] | ≤ 5
9 | Cc1ccc(-c2nncc3cc(-c4cc(C(=O)NC5CC5)ccc4C)ccc23)c(C)c1 [Example 18, N-cyclopropyl-3-[1-(2,4-dimethylphenyl)phthalazin-6-yl]-4-methylbenzamide] | ≤ 5
10 | Cc1ccc(C(=O)NC2CC2)cc1-c1ccc2c(N3CC4CC3CN4)nncc2c1 (stereo not shown) [Example 20, 3-(1-(2,5-diaza-bicyclo[2.2.1]heptan-2-yl)phthalazin-6-yl)-N-cyclopropyl-4-methylbenzamide] | ≤ 5
11 | Cc1ccc(C(=O)NC2CC2)cc1-c1ccc2c(N3CCN(C)CC3)nncc2c1 [Example 23, N-cyclopropyl-4-methyl-3-(1-(4-methylpiperazin-1-yl)phthalazin-6-yl)benzamide] | ≤ 5
12 | Cc1ccc(C(=O)NC2CC2)cc1-c1ccc2c(N3CC4CC3CO4)nncc2c1 (stereo not shown) [Example 27, 3-(1-(5-oxa-2-aza-bicyclo[2.2.1]heptan-2-yl)phthalazin-6-yl)-N-cyclopropyl-4-methylbenzamide] | ≤ 5
13 | Cc1ccc(C(=O)NC2CC2)cc1-c1ccc2c(N3CCCC(C(N)=O)C3)nncc2c1 (stereo not shown) [Example 29, 1-(6-(5-(cyclopropylcarbamoyl)-2-methylphenyl)phthalazin-1-yl)piperidine-3-carboxamide] | ≤ 5
14 | O=C(NC1CC1)c1ccc(Cl)c(-c2ccc3c(N4CCOCC4)nncc3c2)c1 [Example 38, 4-chloro-N-cyclopropyl-3-(1-morpholinophthalazin-6-yl)benzamide] | ≤ 5
15 | CCNC(=O)c1ccc(C)c(-c2ccc3c(N4CCOCC4)nncc3c2)c1 [Example 41, N-ethyl-4-methyl-3-(1-morpholinophthalazin-6-yl)benzamide] | ≤ 5
16 | COc1ccc(C(F)(F)F)cc1NC(=O)c1ccc(C)c(-c2ccc3c(N4CCOCC4)nncc3c2)c1 [Example 43, N-(2-methoxy-5-(trifluoromethyl)phenyl)-4-methyl-3-(1-morpholinophthalazin-6-yl)benzamide] | ≤ 5
17 | Cc1cc(C(=O)NC2CC2)sc1-c1ccc2c(N3CCOCC3)nncc2c1 [Example 46, N-cyclopropyl-4-methyl-5-(1-morpholinophthalazin-6-yl)thiophene-2-carboxamide] | ≤ 5

Row | SMILES | IC50 [µM]
18 | Cc1cc(C(=O)O)sc1-c1ccc2c(N3CCOCC3)nncc2c1 [Example 47, 4-methyl-5-(1-morpholinophthalazin-6-yl)thiophene-2-carboxylic acid] | ≤ 5
19 | CCSc1nncc2cc(-c3cc(C(=O)NC4CC4)ccc3C)ccc12 [Example 55, N-cyclopropyl-3-(1-(ethylthio)phthalazin-6-yl)-4-methylbenzamide] | ≤ 5
20 | Cc1ccc(C(=O)NC2CC2)cc1-c1ccc2c(N3CCC(=O)CC3)nncc2c1 [Example 58, N-cyclopropyl-4-methyl-3-[1-(4-oxopiperidin-1-yl)phthalazin-6-yl]benzamide] | ≤ 5
21 | Cc1ccc(C(N)=O)cc1-c1ccc2c(N3CC[S+]([O-])CC3)nncc2c1 [Example 60, 4-methyl-3-[1-(1-oxidothiomorpholin-4-yl)phthalazin-6-yl]benzamide] | ≤ 5
22 | Cc1ccc(C(=O)NC2CC2)cc1-c1ccc2c(N3CCC(O)(C(C)C)CC3)nncc2c1 [Example 61, N-cyclopropyl-3-(1-(4-hydroxy-4-isopropylpiperidin-1-yl)phthalazin-6-yl)-4-methylbenzamide] | ≤ 5
23 | Cc1ccc(C(=O)NC2CC2)cc1-c1ccc2c(C3=CCNCC3)nncc2c1 [Example 62, N-cyclopropyl-4-methyl-3-(1-(1,2,3,6-tetrahydropyridin-4-yl)phthalazin-6-yl)benzamide] | ≤ 5
24 | Cc1ccc(C(=O)NC2CC2)cc1-c1ccc2c(N3CCNC[C@@H]3C)nncc2c1 [Example 63, N-cyclopropyl-4-methyl-3-(1-((S)-2-methylpiperazin-1-yl)phthalazin-6-yl)benzamide] | ≤ 5
25 | Cc1ccc(C(=O)NC2CC2)cc1-c1ccc2c(C3CCNCC3)nncc2c1 [Example 64, N-cyclopropyl-4-methyl-3-(1-(piperidin-4-yl)phthalazin-6-yl)benzamide] | ≤ 5
26 | CNc1noc2c(-c3ccc4c(N5C[C@@H](C)OC[C@H]5C)nncc4c3)c(C)ccc12 [Example 65, 7-(1-((2R,5R)-2,5-dimethylmorpholino)phthalazin-6-yl)-N,6-dimethylbenzo [d]isoxazol-3-amine] | ≤ 5
27 | CC(=O)N1CCN(c2nncc3cc(-c4cc(C(=O)N(C(C)=O)C5CC5)ccc4C)ccc23)CC1 [Example 66, N-acetyl-3-(1-(4-acetylpiperazin-1-yl)phthalazin-6-yl)-N-cyclopropyl-4-methylbenzamide] | ≤ 5
28 | CC(=O)N1CCC(c2nncc3cc(-c4cc(C(=O)NC5CC5)ccc4C)ccc23)CC1 [Example 67, 3-(1-(1-acetylpiperidin-4-yl)phthalazin-6-yl)-N-cyclopropyl-4-methylbenzamide] | ≤ 5
29 | Cc1ccc(C(=O)NC2CC2)cc1-c1ccc2c(N3C(C)CC[C@@H]3C(=O)NC(C)C)nncc2c1 (stereo partly drawn) [Example 68, (2R)-1-(6-(5-(Cyclopropylcarbamoyl)-2-methylphenyl)phthalazin-1-yl)-N-isopropyl-5-methylpyrrolidine-2-carboxamide] | ≤ 5
30 | O=C(NC1CC1)c1cccc(-c2ccc3c(N4CCOCC4)nncc3c2)c1 [Example 69, N-Cyclopropyl-3-(1-morpholin-4-ylphthalazin-6-yl)benzamide] | ≤ 5
31 | Cc1ccc(C(=O)NC2CC2)cc1-c1ccc2c(C(=O)NC(C)C)nncc2c1 [Example 70, 6-{5-[(Cyclopropylamino)carbonyl]-2-methylphenyl}-N-isopropylphthalazine-1-carboxamide] | ≤ 5
32 | O=C(NC1CC1)c1ccc(F)c(-c2ccc3c(N4CCOCC4)nncc3c2)c1 [Example 72, N-Cyclopropyl-4-fluoro-3-(1-morpholin-4-ylphthalazin-6-yl)benzamide] | ≤ 5
33 | NC(=O)c1ccc(Cl)c(-c2ccc3c(N4CCOCC4)nncc3c2)c1 [Example 73, 4-Chloro-3-(1-morpholin-4-ylphthalazin-6-yl)benzamide] | ≤ 5
34 | Cc1ccc(C(=O)NC2CC2)cc1-c1ccc2c(N3CCOC[C@H]3C)nncc2c1 [Example 75, N-Cyclopropyl-4-methyl-3-{1-[(3R)-3-methylmorpholin-4-yl]phthalazin-6-yl}benzamide] | ≤ 5
